This test concerns non-replicating M. tuberculosis, luciferase expression. The test is described as follows: non-replicating M. tuberculosis inhibition, confirmation, luciferase expression (AID 651856).
Usually IC90 stands for the concentration needed for an effect of 90%. In the case of `O=S(Cc1cn(Cc2ccc(F)cc2)nn1)c1nnc(-c2ccc(Cl)cc2)o1` (stereo not drawn), the 90% effect concentration (IC90) was 4 µM.

`c1ccc(CSc2nnc(-c3ccccc3)o2)cc1`: the IC90 is 16 µM.

As for `Clc1ccc(-c2nnc(SCc3cn(Cc4ccccc4)nn3)o2)cc1`, the IC90 is 4 µM.

In the case of `Fc1ccc(Cn2cc(CSc3nnc(-c4ccc(Cl)cc4)o3)nn2)cc1`, the concentration for an effect of 90% (IC90) is 2 µM.

Take `O=S(Cc1ccccc1)c1nnc(-c2ccccc2)o1` (stereo not drawn): the IC90 is 1 µM.

Regarding `O=S(=O)(Cc1cn(Cc2ccccc2)nn1)c1nnc(-c2ccc(Cl)cc2)o1`, the IC90 was 8 µM.

As for `O=S(=O)(Cc1ccccc1)c1nnc(-c2ccccc2)o1`, the IC90 was 4 µM.

On to `O=S(Cc1cn(Cc2ccccc2)nn1)c1nnc(-c2ccc(Cl)cc2)o1` (stereo not drawn), for which the IC90 was 1 µM.

Values taken from PubChem BioAssay AID651856 (Broad Institute, 2012).
